# In patent US10098841B2, “Method of inducing a phase transition of a bilayer membrane vesicle” (Japan Science and Technology Agency, priority 2005, dated 2018):
# Several values for one entry are separate records, joined by “and”; a condition that tells them apart may be missing. Equal entries are not always repeated.
# How the values were obtained:
# [1] = Solubility in the phosphate buffer used in the examples; type: physicochemical; settings: aqueous buffer, buffer 5 mM NaH2PO4, 0.15 M NaCl, pH 7.5, read-out: solubility against the buffer
# Method: The solubility of the dihydric alcohol 1A against the buffer (5 mM NaH2PO4, 0.15 M NaCl, pH 7.5) used in the examples was about 10 mM.
# The solubility of the dihydric alcohol 1B against the buffer (5 mM NaH2PO4, 0.15 M NaCl, pH 7.5) used in the examples was about 0.2 mM.
# [2] = Membrane fusion experiment using MLV, change in fluorescence (F value, NBD-PE to Rh-PE energy transfer); settings: for membrane fusion of MLV (in words): from F value over time
# From the text: Examples of means for evaluating and observing a phase transition such as fusion of the membranes include observation by electron microscope, quantification of the produced pseudo-ceramide (for example, by mass spectrometry), and measurement of the change in fluorescence. In the case of measuring changes in fluorescence, a compound which causes a fluorescence energy transfer to another compound that present in the vicinity of the compound is introduced as a component of the bilayer membrane. Examples of such compounds include the combination of 1,2-dimyristyl-sn-glycero-3-phosphoethanolamine-N-(7-nitro-2-1,3-benzoxadiazol-4-yl) (NBD-PE) and 1,2-dimyristyl-sn-glycero-3-phosphoethanolamine-N-(lissamine rhodamine B sulfonyl) (Rh-PE). The former is the energy donor, and the latter is the energy acceptor. […] As for evaluating changes in the fluorescence, it is possible to use the fluorescence change F that is obtained by:
# For example, when NBD-PE and Rh-PE are included in separate vesicles, the F value increases by fusion of the vesicles. To the contrary, when a vesicle including both NBD-PE and Rh-PE fuses with a vesicle including neither, the distance between the NBD-PE and Rh-PE increases so that the F value decreases.
# First, 1 mL each of the MLV dispersions that contain a tertiary amine (C8 or C16) obtained in Example 1 were mixed at room temperature. A solution of 2-chloro-4,6-dimethoxy-1,3,5-triazin (CDMT) (150 mM or 300 mM) in methanol (21.7 μL) was added thereto, and allowed to stand at room temperature. Next, to the MLV dispersion obtained in Example 2, a solution of 4-(4,6-dimethoxy-1,3,5-triazin-2-yl)-4-methylmorpholium chloride (DMT-MM) (225 mM or 300 mM) in methanol (21.7 μL), which is a water-soluble dehydrating condensing agent, was added to prepare a mixture. As a control experiment, a mixture to which 21.7 μL of methanol was added instead of the CDMT solution was prepared.
# The change in fluorescence over time of the prepared mixtures was measured with a fluorometer. The excitation wavelength was 470 nm. As mentioned above, the F value was used as the criterion for the change in fluorescence.
# [3] = Change in particle size accompanying MLV fusion (DLS); settings: MLV with C8-tertiary amine 0.2 equivalent, CDMT 50 equivalents
# Method: The MLV dispersion prepared was separated into 2 mL portions, and 50 equivalents (21.7 μL) CDMT (300 mM in methanol) was added thereto. For the control, 21.7 μL of methanol was added. Two samples were prepared and the particle size after 12 hours was measured by dynamic light scattering (DLS).
# [4] = Observation of SUV by transmission electron microscope; settings: SUV with sodium laurate and C16-tertiary amine
# Method: A SUV dispersion of the composition shown in Table 8 was prepared in accordance with the SUV preparation method described in Example 6.
# To 200 μL of the prepared SUV dispersion, 4.3 μL of CDMT (300 mM in methanol) was added, and allowed to stand at room temperature. As a control experiment, 4.3 μL of methanol was added instead of CDMT, and allowed to stand at room temperature. Several drops of the SUV dispersion after standing were placed on a carrier, frozen with liquid nitrogen, and prepared specimens for electron microscopy (replicas) by a freeze fracturing method ordinarily performed by those skilled in the art (JEOL JFD-9010 was used). The specimens obtained were observed by TEM (JEOL JEM-1010) (acceleration voltage 100 kv). The arrows in the micrographs indicate the SUV.
# [5] = Leaking of aqueous phase within SUV accompanying fusion (calcein); settings: with fusion, CDMT 50 equivalents
# Method: Accordingly, in this example, by utilizing the property of the compound, a fusion test was performed for liposomes in which (in the inner aqueous phase) calcein has been contained at a high concentration in advance.
# The SUV was prepared according to the method described in Example 6. However, the calcein (75 mM) was added to a phosphate buffer (5 mM NaH2PO4/Na2HPO4, 0.15 M NaCl, pH 8), and ultrasonic wave treatment was performed to produce SUVs. The SUVs were separated by gel filter (Sephadex G-50, using the same phosphate buffer solution in the mobile phase) to remove the calcein present in the outside aqueous phase, giving a SUV dispersion.
# CDMT (50 equivalents) was added to the obtained SUV dispersion, and allowed to stand at room temperature and the fluorescence (520 nm) was measured (FS) after a given time, and immediately after Triton X-100 (10%, 200 μL) was added to destroy the SUV, and then the fluorescence was measured again (FT). […] The rate of leakage was calculated by the following equation.
# [formula] • F0: Fluorescence intensity at 0 hours • FS: Fluorescence intensity at each hour • FT: Fluorescence intensity after adding Triton X-100
# [6] = SUV membrane fusion by fluorescence dilution method; settings: CDMT 25 or 50 equivalents; SUV with and without fluorescent agent
# Method: An SUV dispersion with a fluorescent agent and an SUV dispersion without a fluorescent agent, of the compositions shown in Table 5 were prepared according to the SUV preparation method described in Example 6.
# First, 0.2 mL of the prepared SUV dispersion with a fluorescent agent and 1.8 mL of the SUV dispersion without a fluorescent agent were mixed at room temperature. Three samples were prepared for each SUV. To two of these samples 10.8 μL (25 equivalents) or 21.7 μL (50 equivalents) of CDMT (300 mM in methanol) was added respectively, and allowed to stand at room temperature. As a control experiment, 21.7 μL of methanol was added to the remaining sample, and also allowed to stand, and then the fluorescence was measured at a given time interval.
# Unlike the mixing method of Example 7, in the case of the fluorescence dilution method of Example 8, the F value becomes smaller as fusion proceeds. […] It should be noted that in the graph of FIG. 5, it appears as if at initial state there is a difference between the control sample and the samples to which CDMT has been added.
# [7] = Membrane fusion experiment using SUV (F value); settings: SUV with C16-tertiary amine
# Method: Sodium laurate (45.0 mM in methanol, 5.8 μL), the dihydric alcohol 1B (38.5 mM in chloroform, 6.8 μL), C16-tertiary amine (3.05 mM in chloroform, 17.0 μL), nonreduced egg yolk lecithin (13.0 mM in chloroform, 19.0 μL), and a fluorescent agent (for NBD-PE: 1.23 mM in chloroform, 10.6 μL; for Rh-PE: 4.19 mM in chloroform, 3.1 μL) were placed into a 20-mL eggplant-shaped flask, and the solvent was evaporated under reduced pressure using a rotary evaporator. The thin film formed on the inner well of the flask was further dried under reduced pressure using a vacuum pump (room temperature, 0.5 hours). Then, 4 mL of phosphate buffer (5 mM NaH2PO4/Na2HPO4, 0.15 M NaCl, pH 8.5) was added thereto, and ultrasonic waves were applied for 30 seconds using a bath-type ultrasonic wave generation device. Next, the mixture was stirred and shaken for 10 minutes with a vortex mixer at 100% strength. […]
# Using the SUV dispersion containing NBD-PE and Rh-PE obtained in Example 6, the change in fluorescence over time was measured in the same way as in the membrane fusion experiment with MLV of Example 3. The F value was calculated from the intensity of the fluorescence peaks to evaluate SUV fusion.
# [8] = Change in particle size accompanying SUV fusion (DLS); settings: for Z average (average diameter): CDMT 50 equivalents; for number of SUVs fused, from change in particle size: about 3 hours
# Method: SUV dispersions with the compositions shown in Table 6 were prepared in accordance with the SUV preparation method described in Example 6.
# The prepared SUV dispersions were filtered through a 0.45-μm pore size filter and each was divided into two 2 mL samples, one of which was supplied with 21.7 μL (50 equivalents) of CDMT (300 mM in methanol) and the other supplied with 21.7 μL of methanol as a control experiment, and allowed to stand at room temperature. The particle size after three hours was measured by DLS.
# [9] = Fusion experiment between active SUV and inactive SUV (fluorescence dilution); settings: CDMT 35 equivalents; runs 2 and 3, one SUV inactive
# Method: In accordance with the fluorescence dilution method described in Example 8, 0.2 mL of the prepared SUV dispersion with a fluorescent agent and 1.8 mL of the SUV dispersion without a fluorescent agent were mixed at room temperature. […] Then, 15.2 μL (4.55 μmol: 35 equivalents of the total fatty acid salt of run 1) of CDMT (300 mM in methanol) was added thereto, allowed to stand at room temperature, and the change in the F values over time was measured with a fluorometer.
compound,measurement,setting,value
"CCCCCCCCCCCCNCC(O)CO (stereo not drawn) [dihydric alcohol 1B, 3-dodecylamino-1,2-propanediol]",solubility,[1],~0.2 mM
"CCCCCCCCNCC(O)CO (stereo not drawn) [dihydric alcohol 1A, 3-octylamino-1,2-propanediol]",solubility,[1],~10 mM
"COc1nc(OC)nc([N+]2(C)CCOCC2)n1.[Cl-] [DMT-MM, 4-(4,6-dimethoxy-1,3,5-triazin-2-yl)-4-methylmorpholium chloride]",Change in fluorescence (F value),"[2]; DMT-MM 38 equivalents, MLV without tertiary amine, 36 hr",1.42
same,Change in fluorescence (F value),"[2]; DMT-MM 50 equivalents, MLV without tertiary amine, 36 hr",1.64
same,membrane fusion of MLV (in words),[2],membrane fusion occurred extremely slowly
"COc1nc(Cl)nc(OC)n1 [CDMT, 2-chloro-4,6-dimethoxy-1,3,5-triazin]",Z average (average diameter),[3]; 0 hr,235.2 nm and 232.4 nm
same,Z average (average diameter),[3]; 12 hr,280.3 nm and 278.2 nm
same,particle size by TEM after CDMT addition,[4],greater than 1 μm
same,Rate of leakage,[5]; 1 hr,6.5%
same,Rate of leakage,[5]; 2 hr,7.1%
same,Rate of leakage,[5]; 3 hr,8% and 8.3%
same,Change in fluorescence (F value),"[2]; CDMT 25 equivalents, C16 tertiary amine in MLV, 2 hr",1.64
same,Change in fluorescence (F value),"[2]; CDMT 25 equivalents, C16 tertiary amine in MLV, 5 hr",8.10
same,Change in fluorescence (F value),"[2]; CDMT 50 equivalents, C8 tertiary amine in MLV, 5 hr",2.22
same,Change in fluorescence (F value),"[2]; CDMT 50 equivalents, C8 tertiary amine in MLV, 12 hr",5.40
same,Change in fluorescence (F value),"[2]; CDMT 50 equivalents, C16 tertiary amine in MLV, 2 hr",4.41
same,Change in fluorescence (F value),"[2]; CDMT 50 equivalents, C16 tertiary amine in MLV, 5 hr",10.4
same,membrane fusion of MLV (in words),[2],membrane fusion occurs
same,"change in fluorescence, fluorescence dilution method (FIG. 5, in words)",[6],a decrease in the fluorescence was found
same,"SUV membrane fusion (F value, FIG. 4, in words)",[7],membrane fusion occurred
same,Z average (average diameter),"[8]; SUV with lauric acid, 0 hr",92.7 nm
same,Z average (average diameter),"[8]; SUV with lauric acid, 3 hr",218.7 nm
same,Z average (average diameter),"[8]; SUV with oleic acid, 0 hr",66.1 nm
same,Z average (average diameter),"[8]; SUV with oleic acid, 3 hr",213.8 nm
same,"number of SUVs fused, from change in particle size",[8]; laurate SUV,10 to 20
same,"number of SUVs fused, from change in particle size",[8]; oleate SUV,30 to 40
same,"change in F value, active/inactive SUV combinations (FIG. 9, in words)",[9],the F value significantly changes
